Data taken from article PMC8566451, “Lead optimization of novel quinolone chalcone compounds by a structure–activity relationship (SAR) study to increase efficacy and metabolic stability” (Scientific Reports, 2021).
Where two headings read alike, the source gives them in different places.

Legend:
[1] = test system: UKRV-Mel-17; assay: Sulforhodamine B (SRB) assay; format: cell-based; conditions: UKRV-Mel-17 melanoma cells, 48 h
Experimental: The human MDA-MB-231, MCF7, MDA-MB-468, RPMI-8226 and HeLa cell lines were purchased from ATCC and maintained in Dulbecco's Modified Eagle Medium (DMEM)—high glucose supplemented with 10% fetal bovine serum (FBS) and antibiotics/antimycotics. Cell line authentication was carried out by Genetica DNA Laboratories (Burlington, NC) using a short tandem repeat (STR) profiling method (March 2015; July 2015; September 2016). Melanoma cells E-055 (MZ-Mel-3), E-097 (Mel-SOE), E-112 (UKRV-Mel-38), E-157 (UKRV-Mel-17) were obtained from the European Searchable Tumour Line Database (ESTDAB) cell bank (a kind gift of Dr. Graham Pawelec, Tubingen University, Germany). MDA-MB-435 was purchased from the Division of Cancer Treatment and Diagnosis Tumor Repository. All melanoma cells were cultured in Roswell Park Memorial Institute (RPMI) medium supplemented with 10% FBS and P/S/antimycotics. Primary human epidermal melanocytes from normal adult abdominal skin were purchased from ATCC (cat # PCS-200–013) and Cell Applications (cat#104-05a). The melanocytes were cultured in the media supplied by the companies.
(§1) The SRB assay was used to assess drug-induced cytotoxicity and cell proliferation as previously described[2],[33],[34] with a few modifications. Briefly, cells were plated 10,000 to 25,000 cells/cm^2 in 96-well plates (100 µl medium) and allowed to adhere overnight. The cell counts were different for each cell line to ensure optimal cell growth for the duration of the assay. Eight different concentrations of compound solutions using 2–4 times serial dilutions (100 µl). Cells were then incubated for an additional 48 h and then fixed with 100 µl ice-cold 10% (w/v) trichloroacetic acid (TCA) (without removing the cell medium, final concentration, 3.3% of TCA) and stained with 0.4% SRB (w/v) in 1% acetic acid (v/v). The relative growth rate (%) was calculated for each of the compound concentrations according to the following formula: 100 * (T − T0)/(C − T0), in which T is the optical density (OD) after exposure to a certain concentration of the compound after 48 h, T0 is the OD at the start of drug exposure (time zero) and C is the control growth. The GI50 for each compound was obtained from a non-linear sigmoidal dose–response (variable slope) curve fitted by GraphPad Prism v.4.03 software.

[2] = Microsome metabolism assay; format: in vitro ADME, human; conditions: for half-life at 5 µM: human microsomes (20 mg/ml protein), NADPH, 120 min
Experimental: (a) CTR-21 is much more metabolically stable than CTR-32. 5 µM of CTR-21 or CTR-32 were incubated with human microsomes (20 mg/ml protein) in the presence of NADPH over the course of 120 min. The lysates were analyzed and % remaining CTR compounds were identified and estimated using HPLC–MS. (b) Summary of structure–activity relationship (SAR) based on activity and metabolic stability.
Microsome metabolism assay was carried out as per manufacturer protocol (ThermoFisher), with 5 µM of starting compound. Analytes were measured on a Waters Xevo G2-XS Quadrupole Time-of-Flight mass spectrometer. Half-life was calculated using exponential one phase decay (GraphPad Prism 5). Hydroxychloroquine was used as an internal standard (500 pg/µL).

[3] = Toxicity in mice (body weight, AST/ALT); format: in vivo, mouse; conditions: for liver toxicity (AST and ALT): C57BL/6 mice, up to maximum doses 10 mg (CTR-21) and 50 mg (CTR-32); for toxicity in mice: mice treated at 10 mg/kg
Experimental: All animal experiments, including animal handling, care, treatments and endpoint determination were reviewed and approved by the Animal Care Committee (ACC) at Laurentian University (Sudbury, Ontario, Canada). We hereby confirm that all animal-based experiments were performed in compliance with relevant guidelines and regulations, including the ARRIVE guidelines (http://www.nc3rs.org.uk/page.asp?id=1357). Weight measurement and AST/ALT experiments were carried out as before.
Neither CTR-21 nor CTR-32 treatment notabl y affect ed the bod y weight of mice treated with CTR-21 or CTR-32. Mice ( C57B L/6) were inject ed (i.p.) ev er y three da ys with the indicated doses of CTR -21 or CTR-32, along with vehicle control. […]
doses used in this experiment (i.e., 10 mg and 50 mg for CTR-21 and CTR-32, respectivel y).
There is no si gnificant changes of AST and ALT between different groups , including vehicl e

[4] = test system: cancer cell lines (breast cancer, melanoma, cervical cancer); assay: SRB assay, average GI50 over cancer cell lines; format: cell-based; conditions: for fold decrease in GI50 relative to CTR-17: average GI50 compared with CTR-17
Experimental: as §1

[5] = test system: NCI-60 panel of cancer cell lines; assay: NCI-60 panel, SRB colorimetric assay; format: cell-based; conditions: 10 μM single dose and five dose data (Supplemental Figs. S1–S8)
Experimental: Supplementa ry Figure l egend
Supplementary Figures S 1- S4.CTR -21 effectivel y prev ent proliferation o f a rep resent ative set […]
of cancer cell lines (NC I-60 panel). Fi gu re S 1: 10 μM of CTR -21 was used against the panel of […]
NC I-60 cancer cell lines including: six leukemia cell lines, nine non-small cell lung cancer cell […]
lines, seven colorectal cancer cell lines, six CNS cancer cell lines, nine mel anoma cell lines, seven ovari an can cer cell lines, seven ren al can cer cell lines, two prostate cancer cell lines and six breast cancer cell lines, utilizing the sulforhodamine B (SRB) colorimetric assa y. Fi gu re S 2- […]
S4: Five dose data for CTR-21.
Supplementary Figures S 5- S8.CTR -32effectivel y prev ent s prolifer ation of a rep resent ative set […]
of cancer cell lines (NC I-60 panel). Fi gu re S 5: 10 μM of CTR -32 was used against the panel of […]
six breast cancer cell lines, utilizing the sulforhodamine B (SRB) colorimetric assa y. Fi gu re S 6- […]
S8: Five dose data for CTR-32.
Supplementa ry Figure S9.CTR -21 and CTR-32 inhibit microtubule pol ymerization in vitro .
Spontaneous pol ymerizat ion of 20µM porcine tubulin was initiated with the addition of 1 […]
mmol/L GTP at 37°C and monitored ever y minut e for 60 minutes in the presence of the […]
indicated concentration of CTR-21, CTR-32, nocodazole, paclitaxel, or a DMSO vehicle […]

[6] = Table 1 and Supplemental Table S1 cell lines, read-out: GI50 range over the cancer cell lines
[7] = average over the cell lines of Table 1 or Supplemental Table S1, read-out: average GI50

## COc1ccccc1C(=O)/C=C/c1cc2cccc(OC)c2[nH]c1=O [CTR-21, (E)-8-methoxy-3-(3-(2-methoxyphenyl)-3-oxoprop-1-enyl) quinolin-2(1H)-one]
[1]
  GI50: 0.009 ± 0.002 µM
[2]
  half-life at 5 µM: 65.2 min
[2]; human microsomes
  half-life relative to CTR-32: almost five times greater
[3]
  liver toxicity (AST and ALT): do not show notable liver
  toxicity in mice: no ill-effects observed
[3]; female C57BL/6 mice, 1 mg/kg
  ALT: 118.03±25.82 U/L
  AST: 249.47±77.12 U/L
  AST/ALT: 2.12
[3]; female C57BL/6 mice, 5 mg/kg
  ALT: 142.17±45.44 U/L
  AST: 265.03±97.76 U/L
  AST/ALT: 1.86
[3]; female C57BL/6 mice, 10 mg/kg
  ALT: 142.98±45.61 U/L
  AST: 319.215±101.93 U/L
  AST/ALT: 2.23
[3]; male C57BL/6 mice, 1 mg/kg
  ALT: 128.49±60.78 U/L
  AST: 264.42±91.94 U/L
  AST/ALT: 2.06
[3]; male C57BL/6 mice, 5 mg/kg
  ALT: 142.71±58.30 U/L
  AST: 228.82±42.23 U/L
  AST/ALT: 1.60
[3]; male C57BL/6 mice, 10 mg/kg
  ALT: 123.93±49.96 U/L
  AST: 242.62±102.65 U/L
  AST/ALT: 1.96
[4]
  SI, cancer over normal cells: > 100 fold
  enhancement of potency over CTR-17 and CTR-20: ~ 30 fold
  fold decrease in GI50 relative to CTR-17: 31 fold
[4]; [6]
  GI50: 0.005 to 0.091 µM
[4]; [7]
  GI50: 0.0164 µM
[5]
  activity against NCI-60 panel: highly effective

## CCOc1ccccc1C(=O)/C=C/c1cc2ccccc2[nH]c1=O [CTR-32, (E)-3-(3-(2-ethoxyphenyl)-3-oxoprop-1-enyl)quinolin-2(1H)-one]
[1]
  GI50: 0.018 ± 0.003 µM
[2]
  half-life at 5 µM: 13.7 min
[3]
  liver toxicity (AST and ALT): do not show notable liver
  toxicity in mice: no ill-effects observed
[3]; female C57BL/6 mice, 30 mg/kg
  ALT: 103.54±61.53 U/L
  AST: 253.74±117.87 U/L
  AST/ALT: 2.45
[3]; female C57BL/6 mice, 50 mg/kg
  ALT: 87.81±25.42 U/L
  AST: 268.16±136.88 U/L
  AST/ALT: 3.05
[3]; male C57BL/6 mice, 30 mg/kg
  ALT: 110.30±44.56 U/L
  AST: 288.49±184.97 U/L
  AST/ALT: 2.62
[3]; male C57BL/6 mice, 50 mg/kg
  ALT: 96.57±45.23 U/L
  AST: 217.49±39.91 U/L
  AST/ALT: 2.25
[4]; [6]
  GI50: 0.005 to 0.091 µM
[4]
  fold decrease in GI50 relative to CTR-17: 23 fold
[4]; [7]
  GI50: 0.02 µM
[5]
  activity against NCI-60 panel: highly effective
